SMILES strings stand for the structures.

Holding throughout (format): cell-based, Human
The subject of one series is H460 cells. The series is described as follows: CCK8 cell viability and IC50 measurement, H460. Conditions: for Cell viability: H460, 25 μM; for IC50: H460, 72 h, CCK8. The procedure:
(§1) Human lung cancer cell line H460 and H1299, human liver normal cell line LO2 were bought from ATCC. DMEM or RPMI 1640 was used as the cell culture medium with 10% FBS and 1% penicillin/streptomycin. Cells were maintained in an incubator with 37°C humidified atmosphere and 5% CO2.
(§2) Cell viability and IC50 values were determined using the CCK8 assay kit. Cells were seeded at a density of 5 × 10^3 cells per well in a 96-well plate. After overnight adhesion, 25 μM of compounds or vehicle control DMSO which all dissolved in the culture medium were added to cells and cultured for 48 h or 72 h. CCK8 reagent, dissolved in the medium, was then added to cells and incubated for 1 h. The absorbance at 450 nm was measured using a microplate spectrophotometer (Thermo). Cell viability was calculated, with the untreated group taken as 100%. For IC50 values determination, different concentrations (0, 0.4 μM, 2 μM, 10 μM, 20 μM, 50 μM) of compounds were added to cells for 72 h. Subsequent CCK8 measurement allowed the calculation of inhibition percentage based on cell viability. The IC50 values were computed by the prism statistical software. The CCK-8 assay was conducted three times and the repetitions in each time were at least three. All the values were expressed as Mean ± SD, p < 0.05 was considered statistically significant.
(§3) In order to assess the potential cytotoxicity of the synthesized compounds, we selected two types of human non-small-cell lung cancer cell line, H460 and H1299. Cell viability and cytotoxicity were evaluated using the CCK8 assay ([Xu et al., 2018]). The cells were treated with 25 μM of compounds 5a-5s and 6a-6i for 48h and 72 h. […] In contrast, no compounds managed to reduce H1299 cell viability to less than 50%, yet compounds 5i, 5m, 6h and 6i achieved cell viability rates below 70%. […] It is worth noting that minimal effects on the cell viability of the normal cell line LO2 were observed when exposed to these compounds. Further, we determined the half-maximal inhibitory concentration (IC50) of selected compounds against H460 cells, the results of which were summarized in Table 3.

Another series concerns H1299 cells. The series is described as follows: CCK8 cell viability, H1299. The following applies: H1299, 25 μM. On the procedure: as §1, §2, §3
For a further series, the system named is LO2 cells. In words: CCK8 cell viability, normal cell line LO2. Conditions: LO2 normal liver cells, 25 μM, 72 h. On the procedure:
as §1, §2, §3

As for `COc1c2n(cc(C(=O)Nc3cccc(-c4cn(-c5cccc(Br)c5)nn4)c3)c1=O)CC1OCC(C)N1C2=O` (stereo not shown) [Compound 5r], the Cell viability in the series on H460 cells (48 h) came out at 99.03%; with H460 cells (72 h) it was 107.13%; in the series on H1299 cells (48 h) it was 117.54%; in the series with H1299 cells (72 h) it was 89.82%; in the series with LO2 cells, 127.81%.
Consider `COc1c2n(cc(C(=O)Nc3cccc(-c4cn(Cc5ccccc5C(F)(F)F)nn4)c3)c1=O)CC1OCC(C)N1C2=O` (stereo not shown) [Compound 6e], for which the Cell viability is 77.85% with H460 cells (48 h); 60.74% in the series on H460 cells (72 h); 127.00% with H1299 cells (48 h); 92.15% with H1299 cells (72 h); 127.55% in the series on LO2 cells. In addition, in the series with H460 cells, the midpoint of inhibition, the IC50, lay at 22.88 ± 0.13 µM.
For `COc1c2n(cc(C(=O)Nc3cccc(-c4cn(-c5ccc(C(F)(F)F)cc5)nn4)c3)c1=O)CC1OCC(C)N1C2=O` (stereo not shown) [Compound 5j], the Cell viability is recorded as 100.66% with H460 cells (48 h); 111.72% in the series with H460 cells (72 h); 96.98% in the series with H1299 cells (48 h); 92.49% with H1299 cells (72 h); 108.63% in the series on LO2 cells.
For `COc1c2n(cc(C(=O)Nc3cccc(-c4cn(-c5ccccc5Cl)nn4)c3)c1=O)CC1OCC(C)N1C2=O` (stereo not shown) [Compound 5s], the Cell viability in the series on H460 cells (48 h) is recorded as 71.73%; with H1299 cells (48 h), 127.14%; in the series on H1299 cells (72 h) it was 97.37%; in the series with LO2 cells, 122.75%. In addition, the “cell proliferation inhibition rate” value with H460 cells (H460, 72-h treatment) is recorded as “exceed 50%”. The IC50 with H460 cells came out at 13.4 ± 4.54 µM.
